Assay results: US8853141B2, “Sulfomethylsuccinates, process for making same and compositions containing same” (Stepan Company, priority 2009, dated 2014)

Assay: Surface activity, K12 Krüss tensiometer, automatic titration for CMC
Assay type: physicochemical
Description: Surface activity was measured with a K12 Krüss tensiometer at 25° C. in deionized water. Automatic titration was used to determine the critical micelle concentration (CMC). No pH adjustment was made for the measurement.

critical micelle concentration (CMC): about 120 mg/L
Substance: dodecyl sulfosuccinate
